Values joined by “and” are separate entries in the source; they are usually repeats but may differ in a detail not shown here. Identical values can stand only once. ± gives the expanded uncertainty stated by the source.
Details: Liquid, Transpiration method

## [N-]=[N+]=NCCO [2-azidoethanol]
284.6 K
  vapor or sublimation pressure: 0.021 ± 0.0016 kPa
287.3 K
  vapor or sublimation pressure: 0.0267 ± 0.0021 kPa
288.8 K
  vapor or sublimation pressure: 0.0298 ± 0.0023 kPa
291.8 K
  vapor or sublimation pressure: 0.0398 ± 0.0031 kPa
294.8 K
  vapor or sublimation pressure: 0.052 ± 0.004 kPa
297.7 K
  vapor or sublimation pressure: 0.0664 ± 0.0052 kPa
300.7 K
  vapor or sublimation pressure: 0.088 ± 0.0068 kPa
303.6 K
  vapor or sublimation pressure: 0.1076 ± 0.0083 kPa
306.6 K
  vapor or sublimation pressure: 0.1398 ± 0.011 kPa
309 K
  vapor or sublimation pressure: 0.1676 ± 0.013 kPa
309.6 K
  vapor or sublimation pressure: 0.1718 ± 0.013 kPa
312 K
  vapor or sublimation pressure: 0.2073 ± 0.016 kPa
312.6 K
  vapor or sublimation pressure: 0.2168 ± 0.017 kPa
316 K
  vapor or sublimation pressure: 0.2782 ± 0.021 kPa
316.1 K
  vapor or sublimation pressure: 0.2882 ± 0.022 kPa

## CCOCCN=[N+]=[N-] [(azidoethoxy)ethane]
274.1 K
  vapor or sublimation pressure: 0.2423 ± 0.019 kPa
275.7 K
  vapor or sublimation pressure: 0.2804 ± 0.022 kPa
277.1 K
  vapor or sublimation pressure: 0.3181 ± 0.024 kPa
277.9 K
  vapor or sublimation pressure: 0.3191 ± 0.024 kPa
278.7 K
  vapor or sublimation pressure: 0.3325 ± 0.025 kPa
279.4 K
  vapor or sublimation pressure: 0.3333 ± 0.026 kPa
280.2 K
  vapor or sublimation pressure: 0.3892 ± 0.03 kPa
281.5 K
  vapor or sublimation pressure: 0.4113 ± 0.032 kPa
282.4 K
  vapor or sublimation pressure: 0.4364 ± 0.034 kPa
283.2 K
  vapor or sublimation pressure: 0.4705 ± 0.037 kPa
284.8 K
  vapor or sublimation pressure: 0.5331 ± 0.041 kPa
286.2 K
  vapor or sublimation pressure: 0.5994 ± 0.046 kPa
287.8 K
  vapor or sublimation pressure: 0.6765 ± 0.052 kPa
289.2 K
  vapor or sublimation pressure: 0.7246 ± 0.055 kPa
290.7 K
  vapor or sublimation pressure: 0.7842 ± 0.06 kPa
292.2 K
  vapor or sublimation pressure: 0.8444 ± 0.065 kPa
292.3 K
  vapor or sublimation pressure: 0.8535 ± 0.066 kPa
293.7 K
  vapor or sublimation pressure: 0.9715 ± 0.075 kPa
295.2 K
  vapor or sublimation pressure: 1.061 ± 0.082 kPa
296.7 K
  vapor or sublimation pressure: 1.173 ± 0.091 kPa
298.2 K
  vapor or sublimation pressure: 1.313 ± 0.1 kPa
300.7 K
  vapor or sublimation pressure: 1.55 ± 0.12 kPa

## [N-]=[N+]=NC1CCCCC1 [azidocyclohexane]
279.6 K
  vapor or sublimation pressure: 0.0856 ± 0.007 kPa
281.6 K
  vapor or sublimation pressure: 0.1002 ± 0.0082 kPa
283.4 K
  vapor or sublimation pressure: 0.1159 ± 0.0095 kPa
285.3 K
  vapor or sublimation pressure: 0.1366 ± 0.011 kPa
286.6 K
  vapor or sublimation pressure: 0.1432 ± 0.012 kPa
287.2 K
  vapor or sublimation pressure: 0.1571 ± 0.013 kPa
288.9 K
  vapor or sublimation pressure: 0.1754 ± 0.014 kPa
290.2 K
  vapor or sublimation pressure: 0.1885 ± 0.015 kPa
291.9 K
  vapor or sublimation pressure: 0.2153 ± 0.018 kPa
293.2 K
  vapor or sublimation pressure: 0.231 ± 0.019 kPa
295.5 K
  vapor or sublimation pressure: 0.2749 ± 0.022 kPa
297.1 K
  vapor or sublimation pressure: 0.3013 ± 0.025 kPa
298.3 K
  vapor or sublimation pressure: 0.3332 ± 0.027 kPa
300.1 K
  vapor or sublimation pressure: 0.3875 ± 0.031 kPa
301.3 K
  vapor or sublimation pressure: 0.3917 ± 0.032 kPa
303.1 K
  vapor or sublimation pressure: 0.4574 ± 0.037 kPa

## [N-]=[N+]=NCSc1ccccc1 [azidomethyl phenyl sulfide]
299.6 K
  vapor or sublimation pressure: 0.00448 ± 0.00033 kPa
303.5 K
  vapor or sublimation pressure: 0.0064 ± 0.00046 kPa
307.3 K
  vapor or sublimation pressure: 0.00918 ± 0.00066 kPa
310.3 K
  vapor or sublimation pressure: 0.01158 ± 0.00083 kPa
313.3 K
  vapor or sublimation pressure: 0.01502 ± 0.0011 kPa
316.2 K
  vapor or sublimation pressure: 0.01866 ± 0.0013 kPa
319.2 K
  vapor or sublimation pressure: 0.02463 ± 0.0018 kPa
324.2 K
  vapor or sublimation pressure: 0.03511 ± 0.0025 kPa

## [N-]=[N+]=NC1CCCC1 [cyclopentyl azide]
275.5 K
  vapor or sublimation pressure: 0.3701 ± 0.028 kPa
279.2 K
  vapor or sublimation pressure: 0.4454 ± 0.033 kPa
281.3 K
  vapor or sublimation pressure: 0.48 ± 0.036 kPa
283.2 K
  vapor or sublimation pressure: 0.5664 ± 0.043 kPa
285.3 K
  vapor or sublimation pressure: 0.6268 ± 0.047 kPa
287 K
  vapor or sublimation pressure: 0.722 ± 0.054 kPa
288.7 K
  vapor or sublimation pressure: 0.7419 ± 0.056 kPa
291.1 K
  vapor or sublimation pressure: 0.8591 ± 0.065 kPa
293 K
  vapor or sublimation pressure: 0.9879 ± 0.074 kPa and 0.9833 ± 0.074 kPa
295.1 K
  vapor or sublimation pressure: 1.102 ± 0.082 kPa
295.8 K
  vapor or sublimation pressure: 1.1 ± 0.085 kPa
297.2 K
  vapor or sublimation pressure: 1.342 ± 0.1 kPa
298.5 K
  vapor or sublimation pressure: 1.418 ± 0.11 kPa
299.1 K
  vapor or sublimation pressure: 1.45 ± 0.11 kPa
300.8 K
  vapor or sublimation pressure: 1.466 ± 0.15 kPa
301.1 K
  vapor or sublimation pressure: 1.615 ± 0.16 kPa
303.1 K
  vapor or sublimation pressure: 1.88 ± 0.14 kPa
303.3 K
  vapor or sublimation pressure: 1.899 ± 0.14 kPa
305.8 K
  vapor or sublimation pressure: 1.953 ± 0.16 kPa
306.1 K
  vapor or sublimation pressure: 2.066 ± 0.17 kPa
308.2 K
  vapor or sublimation pressure: 2.239 ± 0.17 kPa
310.7 K
  vapor or sublimation pressure: 2.494 ± 0.19 kPa
313.3 K
  vapor or sublimation pressure: 2.898 ± 0.22 kPa
317.9 K
  vapor or sublimation pressure: 3.913 ± 0.29 kPa
323.1 K
  vapor or sublimation pressure: 4.896 ± 0.37 kPa
327.7 K
  vapor or sublimation pressure: 5.951 ± 0.45 kPa
333.4 K
  vapor or sublimation pressure: 7.854 ± 0.59 kPa

## CC(=O)OC1CCCC1 [cyclopentyl ethanoate]
274.1 K
  vapor or sublimation pressure: 0.0795 ± 0.0056 kPa
276.1 K
  vapor or sublimation pressure: 0.0894 ± 0.0064 kPa
278.2 K
  vapor or sublimation pressure: 0.1067 ± 0.0076 kPa
281.3 K
  vapor or sublimation pressure: 0.1295 ± 0.0093 kPa
283.2 K
  vapor or sublimation pressure: 0.1597 ± 0.011 kPa
286.3 K
  vapor or sublimation pressure: 0.1983 ± 0.014 kPa
288.4 K
  vapor or sublimation pressure: 0.2248 ± 0.016 kPa
291.2 K
  vapor or sublimation pressure: 0.278 ± 0.02 kPa
293.2 K
  vapor or sublimation pressure: 0.3029 ± 0.022 kPa
296.4 K
  vapor or sublimation pressure: 0.4022 ± 0.029 kPa
298.2 K
  vapor or sublimation pressure: 0.4443 ± 0.032 kPa
303.2 K
  vapor or sublimation pressure: 0.6114 ± 0.043 kPa
308.4 K
  vapor or sublimation pressure: 0.8519 ± 0.06 kPa

## CCOC(=O)CN=[N+]=[N-] [ethyl azidoacetate]
301.4 K
  vapor or sublimation pressure: 0.1784 ± 0.016 kPa
304.8 K
  vapor or sublimation pressure: 0.2378 ± 0.021 kPa
308.3 K
  vapor or sublimation pressure: 0.3083 ± 0.028 kPa
314.3 K
  vapor or sublimation pressure: 0.4549 ± 0.041 kPa
320.2 K
  vapor or sublimation pressure: 0.6452 ± 0.057 kPa
323.2 K
  vapor or sublimation pressure: 0.7874 ± 0.07 kPa
326.2 K
  vapor or sublimation pressure: 0.9687 ± 0.086 kPa
332.2 K
  vapor or sublimation pressure: 1.38 ± 0.12 kPa
338.1 K
  vapor or sublimation pressure: 1.929 ± 0.17 kPa
341.1 K
  vapor or sublimation pressure: 2.397 ± 0.21 kPa
344.3 K
  vapor or sublimation pressure: 2.714 ± 0.24 kPa

Reference: the NIST ThermoML archive (doi:10.1016/j.jct.2011.05.028)
